Article PMC7660650, “Chemical Starting Matter for HNF4α Ligand Discovery and Chemogenomics” (International Journal of Molecular Sciences, 2020)
“And” between values parts separate entries of the source, which are not always exact repeats. Equal values may be shown once.

Target: T1, Gal4-HNF4α (human HNF4α LBD) (Homo sapiens, UniProt P41235)
T1 construct: uniprot entry: P41235-1, residues 142-377; expressed in transfected cells; host or cells: HEK293T
T1 sequence (P41235 142-377): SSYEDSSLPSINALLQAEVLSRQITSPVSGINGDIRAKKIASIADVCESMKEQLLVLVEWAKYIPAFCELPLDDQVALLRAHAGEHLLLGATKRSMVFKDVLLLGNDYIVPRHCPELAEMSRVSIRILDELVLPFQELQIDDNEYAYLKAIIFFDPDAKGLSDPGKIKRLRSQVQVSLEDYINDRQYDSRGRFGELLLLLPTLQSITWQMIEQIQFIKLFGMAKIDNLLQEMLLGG
Test: Hybrid Gal4-HNF4α reporter gene assay in transiently transfected HEK293T cells
Format: cell-based
Settings: Table S1, primary screening, 50 µM

Structure (SMILES)	HNF4a-screening_activity_(mean_of_n=2)
O=C(O)CCc1ccc(Cl)cc1 [Prestw-Frag-1126, OC(=O)CCc1ccc(Cl)cc1]	0.7294
NNC(=O)c1ccccc1 [Prestw-Frag-1420, NNC(=O)c1ccccc1]	1.278
Oc1ccc2c(c1)CCC2 [Prestw-Frag-3713, Oc1ccc2CCCc2c1]	1.011
Cc1ccccc1NC(=O)C(C)N (stereo not drawn) [Prestw-Frag-1856, CC(N)C(=O)Nc1ccccc1C]	1.062 and 1.114
Nc1cccc(Nc2ncccn2)c1 [Prestw-Frag-2935, Nc1cccc(Nc2ncccn2)c1]	1.004
Cc1nc(-c2ccccc2)c(-c2ccccc2)o1 [Prestw-Frag-2695, Cc1nc(c(o1)-c1ccccc1)-c1ccccc1]	1.374
NC(=O)COc1ccc(Cl)cc1 [Prestw-Frag-1833, NC(=O)COc1ccc(Cl)cc1]	1.468 and 0.8655
CNC(C)(C)Cc1ccccc1 [Prestw-Frag-1141, CNC(C)(C)Cc1ccccc1]	1.206
CNC(=O)c1cnc(C)cn1 [Prestw-Frag-1350, CNC(=O)c1cnc(C)cn1]	0.7205 and 0.8855
COc1cc2ccncc2cc1OC [Prestw-Frag-1183, COc1cc2ccncc2cc1OC]	1.218
CN(C)C(=O)Oc1ccccc1 [Prestw-Frag-1540, CN(C)C(=O)Oc1ccccc1]	1.182
CN1CCNCC1=O [Prestw-Frag-3460, CN1CCNCC1=O]	1.233
Oc1nsnc1N1CCOCC1 [Prestw-Frag-2562, Oc1nsnc1N1CCOCC1]	1.981
OCc1cc2ccccc2[nH]1 [Prestw-Frag-1297, OCc1cc2ccccc2[nH]1]	1.241
CCN(CC)CCOc1ccccc1O [Prestw-Frag-1345, CCN(CC)CCOc1ccccc1O]	0.7766 and 1.111
O=C1c2nccnc2C(O)N1c1ccc(Cl)cn1 (stereo not drawn) [Prestw-Frag-3046, OC1N(C(=O)c2nccnc12)c1ccc(Cl)cn1]	0.8017
O=c1[nH]c2ccccc2o1 [Prestw-Frag-1087, O=c1[nH]c2ccccc2o1]	1.002 and 1.32
COc1cccc2c1CCCC2=O [Prestw-Frag-1236, COc1cccc2C(=O)CCCc12]	1.287
c1ccc2c(c1)CCCN2 [Prestw-Frag-3137, C1CNc2ccccc2C1]	0.9914
NC(=O)c1nc[nH]c1N [Prestw-Frag-2268, NC(=O)c1nc[nH]c1N]	0.9961
CC(=O)NCc1cccnc1 [Prestw-Frag-1745, CC(=O)NCc1cccnc1]	0.9231 and 1.026
Cc1ccc(C#N)c(=O)[nH]1 [Prestw-Frag-2669, Cc1ccc(C#N)c(=O)[nH]1]	0.9816
CN1CCN(c2ccccc2)CC1 [Prestw-Frag-1946, CN1CCN(CC1)c1ccccc1]	1.048
CC(=O)NCCc1c[nH]c2ccccc12 [Prestw-Frag-1478, CC(=O)NCCc1c[nH]c2ccccc12]	1.089

Structure (SMILES)	HNF4a-screening_activity_(mean_of_n=2)
c1ccc(N2CCN(c3ccccc3)CC2)cc1 [Prestw-Frag-3257, C1CN(CCN1c1ccccc1)c1ccccc1]	1.063
Nc1ccc2c(c1)CCCC2 [Prestw-Frag-3682, Nc1ccc2CCCCc2c1]	0.958
CC(O)(C(=O)O)c1ccccc1 (stereo not drawn) [Prestw-Frag-3717, CC(O)(C(O)=O)c1ccccc1]	1.037
Clc1cccc(N2CCNCC2)c1Cl [Prestw-Frag-2853, Clc1cccc(N2CCNCC2)c1Cl]	1.239
OCC1CCNCC1 [Prestw-Frag-3727, OCC1CCNCC1]	0.8559
OCc1ccc(O)cc1 [Prestw-Frag-2532, OCc1ccc(O)cc1]	1.028
O=C(O)C(c1ccccc1)c1ccccc1 [Prestw-Frag-3711, OC(=O)C(c1ccccc1)c1ccccc1]	1.082
Cc1cnc(C(=O)O)cn1 [Prestw-Frag-1494, Cc1cnc(cn1)C(O)=O]	0.7971 and 1.166
NNC(=O)c1ccncc1 [Prestw-Frag-1419, NNC(=O)c1ccncc1]	0.9909
Cc1nc(-c2ccccc2F)cs1 [Prestw-Frag-3745, Cc1nc(cs1)-c1ccccc1F]	1.103
O=C(O)CC[C@H](NC(=O)c1ccccc1)C(=O)O [Prestw-Frag-1499, OC(=O)CC[C@H](NC(=O)c1ccccc1)C(O)=O]	1.11
O=C1Nc2ccccc2Nc2ccccc21 [Prestw-Frag-1904, O=C1Nc2ccccc2Nc2ccccc12]	1.665 and 0.9141
OCCn1ccnc1 [Prestw-Frag-1303, OCCn1ccnc1]	0.8061 and 1.219
COc1ccc(C(C)=O)c(O)c1 [Prestw-Frag-2701, COc1ccc(C(C)=O)c(O)c1]	1.01
Cc1cc(C(C)(C)C)cc(C)c1CC1=NCCN1 [Prestw-Frag-1575, Cc1cc(cc(C)c1CC1=NCCN1)C(C)(C)C]	1.056
O=c1[nH]c2ccccc2n1C1CCNCC1 [Prestw-Frag-1587, O=c1[nH]c2ccccc2n1C1CCNCC1]	1.041
Cc1cc(C)nc(O)n1 [Prestw-Frag-3247, Cc1cc(C)nc(O)n1]	1.288
NCCCCc1ccccc1 [Prestw-Frag-1031, NCCCCc1ccccc1]	1.332
CNS(=O)(=O)CCc1ccccc1 [Prestw-Frag-3368, CNS(=O)(=O)CCc1ccccc1]	1.162
c1cnc(N2CCNCC2)nc1 [Prestw-Frag-1398, C1CN(CCN1)c1ncccn1]	1.074 and 0.9138
c1ccc(-n2ccc3ccccc32)cc1 [Prestw-Frag-3011, c1cc2ccccc2n1-c1ccccc1]	0.7452
c1ccc(Cn2ccnc2)cc1 [Prestw-Frag-2620, C(c1ccccc1)n1ccnc1]	0.9802
c1ccc(-n2ccnc2)cc1 [Prestw-Frag-3744, c1cn(cn1)-c1ccccc1]	1.014
OC1CCN(c2ccccc2F)CC1 [Prestw-Frag-2803, OC1CCN(CC1)c1ccccc1F]	1.103

Structure (SMILES)	HNF4a-screening_activity_(mean_of_n=2)
CCN(CC)CCNC(=O)c1ccc(N)c(Cl)c1 [Prestw-Frag-3120, CCN(CC)CCNC(=O)c1ccc(N)c(Cl)c1]	1.18
O=C(O)CC(c1ccccc1)c1ccccc1 [Prestw-Frag-3250, OC(=O)CC(c1ccccc1)c1ccccc1]	1.055
NC(=O)Cc1ccccc1 [Prestw-Frag-2580, NC(=O)Cc1ccccc1]	0.9823
O=C1CCc2ccccc2N1 [Prestw-Frag-2464, O=C1CCc2ccccc2N1]	1.314
CCc1ccc(CCO)nc1 [Prestw-Frag-2968, CCc1ccc(CCO)nc1]	1.216
CC(=O)c1cc(Cl)ccc1O [Prestw-Frag-1083, CC(=O)c1cc(Cl)ccc1O]	1.17
COc1ccc(CCN)cc1O [Prestw-Frag-1064, COc1ccc(CCN)cc1O]	1.012
Cn1c(N)nc2ccccc21 [Prestw-Frag-3740, Cn1c(N)nc2ccccc12]	1.19
O=C(Cc1ccccc1F)C1CC1 [Prestw-Frag-3198, Fc1ccccc1CC(=O)C1CC1]	1.083
FC(F)(F)c1cc[nH]n1 [Prestw-Frag-3726, FC(F)(F)c1cc[nH]n1]	0.9056
Clc1ccc(CNc2ccccn2)cc1 [Prestw-Frag-2356, Clc1ccc(CNc2ccccn2)cc1]	1.16
CCCC(=O)Nc1cccc(C(C)=O)c1 [Prestw-Frag-1717, CCCC(=O)Nc1cccc(c1)C(C)=O]	0.9496 and 0.8871
Nc1ncc([N+](=O)[O-])s1 [Prestw-Frag-3324, Nc1ncc(s1)[N+]([O-])=O]	0.8744
O=C(O)/C=C/c1cnc[nH]1 [Prestw-Frag-3090, OC(=O)\C=C\c1cnc[nH]1]	1.054
c1nc(C2CCNCC2)c[nH]1 [Prestw-Frag-3753, C1CC(CCN1)c1c[nH]cn1]	0.9547
Cc1c(N)cccc1C(F)(F)F [Prestw-Frag-1189, Cc1c(N)cccc1C(F)(F)F]	1.319
CCNC(=O)c1ccc(Cl)cc1 [Prestw-Frag-2818, CCNC(=O)c1ccc(Cl)cc1]	0.8348
O=C1CNCCN1 [Prestw-Frag-3458, O=C1CNCCN1]	1.246
O=c1ccn([C@@H]2C[C@H](O)[C@@H](CO)O2)c(=O)[nH]1 [Prestw-Frag-2769, OC[C@H]1O[C@@H](C[C@@H]1O)n1ccc(=O)[nH]c1=O]	0.8958
CC(=O)Nc1nncs1 [Prestw-Frag-1008, CC(=O)Nc1nncs1]	1.066 and 0.8521
CNC(=O)c1c(-c2ccccc2)noc1C [Prestw-Frag-3690, CNC(=O)c1c(C)onc1-c1ccccc1]	0.8222
Nc1ccc(CS(=O)(=O)N2CCCC2)cc1 [Prestw-Frag-3341, Nc1ccc(CS(=O)(=O)N2CCCC2)cc1]	1.256
Nc1nc2c(s1)CCCC2 [Prestw-Frag-2972, Nc1nc2CCCCc2s1]	1.123
COc1cc2c(cc1O)CCN[C@H]2C [Prestw-Frag-1063, COc1cc2[C@H](C)NCCc2cc1O]	1.128
